Structures are written as SMILES.

A short description of the data set: Pharmacokinetics after single intravenous bolus of E2 and P in sheep. In kind it is in vivo. As to conditions: Dorset crossbred, plasma, E2 160 μg, P 10 mg, mean; for AUC(0-inf): n = 2; for clearance: n = 2, read-out: CL, total body clearance (converted); for half-life: n = 2, read-out: T1/2, terminal half-life (converted); for Vd: n = 2, read-out: Vz, volume of distribution based on terminal elimination phase. The source says:
Standard noncompartmental PK analysis methods were used.

Consider `C[C@]12CC[C@@H]3c4ccc(O)cc4CC[C@H]3[C@@H]1CC[C@@H]2O` [E2, 17β-estradiol], for which the AUC(0-inf) is 1.79 ng·h/mL, the clearance is 1490 mL/min, the half-life was 2.22 h and the Vd was determined as 287 L.

As for `CC(=O)[C@H]1CC[C@H]2[C@@H]3CCC4=CC(=O)CC[C@]4(C)[C@H]3CC[C@]12C` [P, progesterone], the area under the curve AUC(0-inf) was determined as 20 ng·h/mL, the clearance is 8330 mL/min, the half-life was 2.75 h and the Vd was found to be 1980 L.

These data come from patent publication US20240115416A1, “SEGMENTED EVA INTRAVAGINAL RINGS” (priority 2019, published 2024).
